Measured values taken from ChEMBL document CHEMBL1201862, “PubChem BioAssay data set” (2004).
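Cells were grown in 96-well plates and exposed to each compound for 48 hours at five concentrations; endpoints were interpolated linearly between bracketing concentrations, or set to the highest concentration if not reached. GI50 marks 50% less growth.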 Activity calls are given as the source filed them. No stated cut-off is given here; in the data, active = GI50 up to about 1.1 µM and inactive = higher.

Experiments:
Test in all cases: NCI tumour cell line growth inhibition, 48 h
[1] = tested on: SN12C
[2] = tested on: K562
[3] = tested on: HOP-62
[4] = tested on: UO-31
[5] = tested on: OVCAR-8
[6] = tested on: A498
[7] = tested on: RPMI-8226
[8] = tested on: SR
[9] = tested on: LOX IMVI
[10] = tested on: NCI/ADR-RES
[11] = tested on: NCI-H460
[12] = tested on: RXF 393
[13] = tested on: PC-3
[14] = tested on: HL-60
[15] = tested on: M14
[16] = tested on: SNB-75
[17] = tested on: HOP-92
[18] = tested on: NCI-H522
[19] = tested on: SF-268

| SMILES | GI50 [1] | GI50 [2] | GI50 [3] | GI50 [4] | GI50 [5] | GI50 [6] | GI50 [7] | GI50 [8] | GI50 [9] | GI50 [10] | GI50 [11] | GI50 [12] | GI50 [13] | GI50 [14] | GI50 [15] | GI50 [16] | GI50 [17] | GI50 [18] | GI50 [19] |
| --- | --- | --- | --- | --- | --- | --- | --- | --- | --- | --- | --- | --- | --- | --- | --- | --- | --- | --- | --- |
| Cn1c(=O)[nH]c2nccnc2c1=O | > 10 µM (inactive) | > 10 µM (inactive) | > 10 µM (inactive) | > 10 µM (inactive) | > 10 µM (inactive) | > 10 µM (inactive) | > 10 µM (inactive) | > 10 µM (inactive) | > 10 µM (inactive) | > 10 µM (inactive) | > 10 µM (inactive) | > 10 µM (inactive) | > 10 µM (inactive) | > 10 µM (inactive) | > 10 µM (inactive) | > 10 µM (inactive) | > 10 µM (inactive) | > 10 µM (inactive) | > 10 µM (inactive) |
| CC1=C2C(=O)c3ccccc3C(=O)[C@H]2C[C@@H](N2CCCCCC2=O)O1 | 17.7 µM (inactive) | 19.8 µM (inactive) | 19 µM (inactive) | 17 µM (inactive) | 21.5 µM (inactive) | > 100 µM (inactive) | 14.6 µM (inactive) | 6.92 µM (inactive) | 17.3 µM (inactive) | 22.3 µM (inactive) | 18.8 µM (inactive) | 27 µM (inactive) | 17.9 µM (inactive) | 19 µM (inactive) | 15.4 µM (inactive) | 23.4 µM (inactive) | 19.4 µM (inactive) | 19.9 µM (inactive) | 20.9 µM (inactive) |
| Nc1cc(-c2ccc(Cl)cc2)nn1-c1nc2ccccc2nc1-c1ccccc1 | 80.7 µM (inactive) | > 100 µM (inactive) | 49 µM (inactive) | – | > 100 µM (inactive) | > 100 µM (inactive) | 37.5 µM (inactive) | 71.8 µM (inactive) | > 100 µM (inactive) | > 100 µM (inactive) | > 100 µM (inactive) | 35 µM (inactive) | 22.2 µM (inactive) | > 100 µM (inactive) | > 100 µM (inactive) | 27.6 µM (inactive) | 56 µM (inactive) | > 100 µM (inactive) | > 100 µM (inactive) |
| CC(=O)O[C@H]1C[C@H]2[C@@H]([C@H](OC(C)=O)C[C@@H]3CC4(CC[C@@]32C)OOC2(CCCCC2)OO4)[C@@H]2CC[C@H]([C@H](C)CCC(=O)O)[C@@]12C | 6.81 µM (inactive) | 5.57 µM (inactive) | 2.45 µM (inactive) | 3.28 µM (inactive) | 4.08 µM (inactive) | 13.3 µM (inactive) | 3.46 µM (inactive) | 2.44 µM (inactive) | 3.48 µM (inactive) | 4.88 µM (inactive) | 4.43 µM (inactive) | 13.5 µM (inactive) | 7.24 µM (inactive) | 4.15 µM (inactive) | 12 µM (inactive) | 3.61 µM (inactive) | 1.98 µM (inactive) | 3.24 µM (inactive) | 6.81 µM (inactive) |
| COC(=O)CC1(O)C=CC(=O)C=C1 [JACARANONE] | 9.31 µM (inactive) | 3.76 µM (inactive) | 6.76 µM (inactive) | 2.96 µM (inactive) | 3.4 µM (inactive) | 7.16 µM (inactive) | 5.45 µM (inactive) | 2.47 µM (inactive) | 2.51 µM (inactive) | 3.63 µM (inactive) | 2.2 µM (inactive) | 3.36 µM (inactive) | 2.57 µM (inactive) | 2.59 µM (inactive) | 4.18 µM (inactive) | 5.43 µM (inactive) | 8.07 µM (inactive) | 1.39 µM (inactive) | 3.18 µM (inactive) |
| Oc1ccc(Cc2nccc3cc(O)c(O)cc23)cc1O | 29.9 µM (inactive) | 26.8 µM (inactive) | 47.4 µM (inactive) | 40.6 µM (inactive) | 45.7 µM (inactive) | 45 µM (inactive) | 27.4 µM (inactive) | 19.6 µM (inactive) | 33.5 µM (inactive) | > 100 µM (inactive) | 29.6 µM (inactive) | 37.6 µM (inactive) | 52.6 µM (inactive) | 26.3 µM (inactive) | 26.6 µM (inactive) | 21 µM (inactive) | 90.2 µM (inactive) | 30.4 µM (inactive) | 51.9 µM (inactive) |
| CC(C)=CCc1[nH]c2ccccc2c1C1=C(O)C(=O)C(c2c(CC=C(C)C)[nH]c3ccccc23)=C(O)C1=O | 1.26 µM (inactive) | 0.989 µM (active) | 0.815 µM (active) | 1.49 µM (inactive) | 1.53 µM (inactive) | 1.21 µM (inactive) | 2.3 µM (inactive) | 1.17 µM (inactive) | 1.43 µM (inactive) | 2.7 µM (inactive) | 1.34 µM (inactive) | 1.75 µM (inactive) | 1.83 µM (inactive) | 2.19 µM (inactive) | 3.24 µM (inactive) | 0.604 µM (active) | 1.12 µM (inactive) | 2.2 µM (inactive) | 0.409 µM (active) |
